Data reported in ChEMBL document CHEMBL5506027, “Discovery of a Novel and Potent Cyclin-Dependent Kinase 8/19 (CDK8/19) Inhibitor for the Treatment of Cancer” (J Med Chem, 2024).

Key:
[1] = target: Dual specificity protein kinase CLK2 (Homo sapiens, UniProt P49760); assay: Inhibition of CLK2 (unknown origin) by ADP-Glo assay
[2] = Clearance in dog at 1 mg/kg, iv measured upto 24 hrs by LC-MS/MS anlaysis; type: ADME, organism-based, Canis lupus familiaris; details: in vivo
[3] = target: Dual specificity tyrosine-phosphorylation-regulated kinase 1A (Homo sapiens, UniProt Q13627); assay: Inhibition of DYRK1A (unknown origin) by ADP-Glo assay
[4] = Clearance in mouse at 1 mg/kg, iv measured upto 24 hrs by LC-MS/MS anlaysis; type: ADME, organism-based; details: in vivo
CDK8/Cyclin C = CDK8/Cyclin C (Homo sapiens, UniProt P49336); assay: Inhibition of CDK8/CyclinC (unknown origin) by ADP-Glo chemiluminescence assay; type: protein-complex assay
[5] = target: Dual specificity protein kinase CLK4 (Homo sapiens, UniProt Q9HAZ1); assay: Inhibition of CLK4 (unknown origin) by ADP-Glo assay
Sequence of Dual specificity protein kinase CLK4 (Q9HAZ1 whole entry): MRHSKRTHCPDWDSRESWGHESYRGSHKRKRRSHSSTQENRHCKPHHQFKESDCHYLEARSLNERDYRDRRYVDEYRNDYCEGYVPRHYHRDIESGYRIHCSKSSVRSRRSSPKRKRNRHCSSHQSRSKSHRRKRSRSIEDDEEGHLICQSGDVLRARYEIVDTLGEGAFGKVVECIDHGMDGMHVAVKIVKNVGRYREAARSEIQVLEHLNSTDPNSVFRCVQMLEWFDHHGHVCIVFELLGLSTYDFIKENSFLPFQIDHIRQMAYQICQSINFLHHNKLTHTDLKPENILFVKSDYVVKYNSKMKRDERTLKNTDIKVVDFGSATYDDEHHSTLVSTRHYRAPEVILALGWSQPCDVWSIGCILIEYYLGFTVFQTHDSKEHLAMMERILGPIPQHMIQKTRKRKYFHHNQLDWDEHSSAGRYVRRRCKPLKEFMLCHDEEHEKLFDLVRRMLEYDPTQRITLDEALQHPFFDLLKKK

Cytochrome P450 1A2 [6] = target: T1, Cytochrome P450 1A2 (Homo sapiens, UniProt P05177); assay: Inhibition of CYP1A2 (unknown origin) in absence of NADPH; type: ADME
T1 sequence (P05177 whole entry): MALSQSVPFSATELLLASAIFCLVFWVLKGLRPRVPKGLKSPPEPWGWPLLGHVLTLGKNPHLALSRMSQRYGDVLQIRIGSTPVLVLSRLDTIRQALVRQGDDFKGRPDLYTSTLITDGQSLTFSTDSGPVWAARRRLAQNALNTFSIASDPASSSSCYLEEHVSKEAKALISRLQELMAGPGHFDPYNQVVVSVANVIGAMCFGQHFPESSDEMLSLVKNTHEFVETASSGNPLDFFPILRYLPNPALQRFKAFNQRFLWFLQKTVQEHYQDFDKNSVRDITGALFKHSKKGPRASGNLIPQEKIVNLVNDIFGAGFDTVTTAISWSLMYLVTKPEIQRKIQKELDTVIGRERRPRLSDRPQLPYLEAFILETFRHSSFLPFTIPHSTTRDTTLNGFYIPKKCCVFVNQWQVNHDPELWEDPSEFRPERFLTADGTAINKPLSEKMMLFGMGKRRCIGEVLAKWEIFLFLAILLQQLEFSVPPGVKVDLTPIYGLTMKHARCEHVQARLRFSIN

[7] = target: Serine/threonine-protein kinase haspin (Homo sapiens, UniProt Q8TF76); assay: Inhibition of HASPIN (unknown origin) by ADP-Glo assay
Sequence of Serine/threonine-protein kinase haspin (Q8TF76 whole entry): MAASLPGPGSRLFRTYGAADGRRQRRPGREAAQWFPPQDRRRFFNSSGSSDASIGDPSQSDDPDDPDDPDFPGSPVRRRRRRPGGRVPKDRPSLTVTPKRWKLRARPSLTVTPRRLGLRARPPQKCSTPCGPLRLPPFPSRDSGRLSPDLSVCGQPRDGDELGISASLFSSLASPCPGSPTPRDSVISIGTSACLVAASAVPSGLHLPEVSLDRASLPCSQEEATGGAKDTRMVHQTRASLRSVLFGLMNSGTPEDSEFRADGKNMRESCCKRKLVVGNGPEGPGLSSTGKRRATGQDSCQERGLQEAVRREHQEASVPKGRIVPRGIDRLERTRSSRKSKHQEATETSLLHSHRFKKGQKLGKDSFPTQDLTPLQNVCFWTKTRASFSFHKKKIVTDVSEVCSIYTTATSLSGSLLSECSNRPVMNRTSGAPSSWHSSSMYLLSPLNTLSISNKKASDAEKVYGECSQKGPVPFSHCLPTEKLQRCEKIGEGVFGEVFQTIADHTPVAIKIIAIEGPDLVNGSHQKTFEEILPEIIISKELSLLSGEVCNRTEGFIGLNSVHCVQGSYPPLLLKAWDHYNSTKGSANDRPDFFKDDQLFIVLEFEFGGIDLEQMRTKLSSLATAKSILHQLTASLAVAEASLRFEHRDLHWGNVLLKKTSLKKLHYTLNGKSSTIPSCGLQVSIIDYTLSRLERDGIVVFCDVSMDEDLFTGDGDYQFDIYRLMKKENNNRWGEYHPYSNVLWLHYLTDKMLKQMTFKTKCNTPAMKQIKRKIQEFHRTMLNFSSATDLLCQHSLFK

[8] = Oral bioavailability in rat at 5 mg/kg measured upto 24 hrs by LC-MS/MS analysis; type: ADME, organism-based; details: in vivo
[9] = target: Casein kinase II subunit alpha' (Homo sapiens, UniProt P19784); assay: Inhibition of CSNK2A2 (unknown origin) by ADP-Glo assay
[10] = Half-life in mouse at 1 mg/kg, iv measured upto 24 hrs by LC-MS/MS anlaysis; type: ADME, organism-based; details: in vivo
[11] = target: Cyclin-dependent kinase 2/cyclin E1 (Homo sapiens, UniProt P24941); assay: Inhibition of CDK2/cyclinE1 (unknown origin) by ADP-Glo chemiluminescence assay; type: protein-complex assay
[12] = target: T2, Cyclin-dependent kinase 5/CDK5 activator 1 (Homo sapiens, UniProt Q00535); assay: Inhibition of CDK5/p35NCK (unknown origin) by ADP-Glo chemiluminescence assay; type: protein-complex assay
T2 sequence (Q00535 whole entry): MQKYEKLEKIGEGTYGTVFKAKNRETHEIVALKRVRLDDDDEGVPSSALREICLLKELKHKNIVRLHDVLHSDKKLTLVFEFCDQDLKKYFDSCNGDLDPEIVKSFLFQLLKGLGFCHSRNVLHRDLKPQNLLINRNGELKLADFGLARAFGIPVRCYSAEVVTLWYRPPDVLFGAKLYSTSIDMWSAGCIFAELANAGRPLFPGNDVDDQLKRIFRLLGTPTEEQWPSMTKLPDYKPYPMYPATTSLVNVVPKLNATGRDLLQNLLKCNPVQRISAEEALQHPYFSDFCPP
T2 sequence (Q15078 whole entry, further chain): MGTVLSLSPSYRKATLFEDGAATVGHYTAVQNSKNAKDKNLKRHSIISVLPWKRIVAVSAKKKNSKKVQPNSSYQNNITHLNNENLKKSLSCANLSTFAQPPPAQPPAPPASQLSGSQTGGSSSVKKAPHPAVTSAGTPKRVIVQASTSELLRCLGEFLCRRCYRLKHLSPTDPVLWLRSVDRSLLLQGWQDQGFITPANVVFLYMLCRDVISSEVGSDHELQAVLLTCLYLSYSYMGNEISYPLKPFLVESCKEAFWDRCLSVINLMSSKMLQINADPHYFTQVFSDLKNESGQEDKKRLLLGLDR

[13] = target: Serine/threonine-protein kinase TAO1 (Homo sapiens, UniProt Q7L7X3); assay: Inhibition of TAOK1 (unknown origin) by ADP-Glo assay
CDK7/Cyclin H/MNAT1 = CDK7/Cyclin H/MNAT1 (Homo sapiens, UniProt P50613); assay: Inhibition of CDK7/cyclinH/MAT1 (unknown origin) by ADP-Glo chemiluminescence assay; type: protein-complex assay
[14] = target: Voltage-gated inwardly rectifying potassium channel KCNH2 (Homo sapiens, UniProt Q12809); assay: Inhibition of human ERG; type: toxicity
[15] = target: Dual specificity protein kinase CLK1 (Homo sapiens, UniProt P49759); assay: Inhibition of CLK1 (unknown origin) by ADP-Glo assay
[16] = target: T2, Cyclin-dependent kinase 5/CDK5 activator 1; assay: Inhibition of CDK5/p25NCK (unknown origin) by ADP-Glo chemiluminescence assay; type: protein-complex assay
MV4-11 = assay: Antiproliferative activity against human MV4-11 cells incubated for 5 days by CellTiter-Glo luminescent cell viability assay; type: functional, cell-based; details: MV4-11, 120 h
[17] = target: Serine/threonine-protein kinase pim-2 (Homo sapiens, UniProt Q9P1W9); assay: Inhibition of PIM2 (unknown origin) by ADP-Glo assay
Sequence of Serine/threonine-protein kinase pim-2 (Q9P1W9 whole entry, canonical isoform): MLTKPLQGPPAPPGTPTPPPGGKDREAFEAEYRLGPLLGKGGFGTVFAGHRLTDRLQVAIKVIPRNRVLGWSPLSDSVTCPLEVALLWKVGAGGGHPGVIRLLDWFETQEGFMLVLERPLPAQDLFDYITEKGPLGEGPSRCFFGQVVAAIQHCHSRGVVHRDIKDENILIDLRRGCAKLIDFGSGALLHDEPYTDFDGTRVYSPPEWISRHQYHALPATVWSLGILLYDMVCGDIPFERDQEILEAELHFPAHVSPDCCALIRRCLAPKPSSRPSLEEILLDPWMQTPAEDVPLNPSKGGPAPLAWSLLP

[18] = target: Casein kinase I isoform alpha (Homo sapiens, UniProt P48729); assay: Inhibition of CSNK1A1 (unknown origin) by ADP-Glo assay
Sequence of Casein kinase I isoform alpha (P48729 whole entry, canonical isoform): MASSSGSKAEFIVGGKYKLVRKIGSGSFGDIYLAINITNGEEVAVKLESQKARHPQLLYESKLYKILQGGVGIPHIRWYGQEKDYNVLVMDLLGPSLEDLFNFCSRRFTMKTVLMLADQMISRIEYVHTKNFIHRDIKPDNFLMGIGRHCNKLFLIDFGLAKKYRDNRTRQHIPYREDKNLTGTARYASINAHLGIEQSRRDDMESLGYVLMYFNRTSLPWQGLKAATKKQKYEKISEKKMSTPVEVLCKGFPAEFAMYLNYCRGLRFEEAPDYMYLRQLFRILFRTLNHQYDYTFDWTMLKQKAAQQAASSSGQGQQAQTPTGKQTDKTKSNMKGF

[19] = Volume of distribution at steady state in dog at 1 mg/kg, iv measured upto 24 hrs by LC-MS/MS anlaysis; type: ADME, organism-based, Canis lupus familiaris; details: in vivo, read-out: Vdss
[20] = target: Rho-associated protein kinase 1 (Homo sapiens, UniProt Q13464); assay: Inhibition of ROCK1 (unknown origin) by ADP-Glo assay
[21] = Half-life in rat at 1 mg/kg, iv measured upto 24 hrs by LC-MS/MS anlaysis; type: ADME, organism-based; details: in vivo
[22] = target: Homeodomain-interacting protein kinase 3 (Homo sapiens, UniProt Q9H422); assay: Inhibition of HIPK3 (unknown origin) by ADP-Glo assay
Sequence of Homeodomain-interacting protein kinase 3 (Q9H422 whole entry): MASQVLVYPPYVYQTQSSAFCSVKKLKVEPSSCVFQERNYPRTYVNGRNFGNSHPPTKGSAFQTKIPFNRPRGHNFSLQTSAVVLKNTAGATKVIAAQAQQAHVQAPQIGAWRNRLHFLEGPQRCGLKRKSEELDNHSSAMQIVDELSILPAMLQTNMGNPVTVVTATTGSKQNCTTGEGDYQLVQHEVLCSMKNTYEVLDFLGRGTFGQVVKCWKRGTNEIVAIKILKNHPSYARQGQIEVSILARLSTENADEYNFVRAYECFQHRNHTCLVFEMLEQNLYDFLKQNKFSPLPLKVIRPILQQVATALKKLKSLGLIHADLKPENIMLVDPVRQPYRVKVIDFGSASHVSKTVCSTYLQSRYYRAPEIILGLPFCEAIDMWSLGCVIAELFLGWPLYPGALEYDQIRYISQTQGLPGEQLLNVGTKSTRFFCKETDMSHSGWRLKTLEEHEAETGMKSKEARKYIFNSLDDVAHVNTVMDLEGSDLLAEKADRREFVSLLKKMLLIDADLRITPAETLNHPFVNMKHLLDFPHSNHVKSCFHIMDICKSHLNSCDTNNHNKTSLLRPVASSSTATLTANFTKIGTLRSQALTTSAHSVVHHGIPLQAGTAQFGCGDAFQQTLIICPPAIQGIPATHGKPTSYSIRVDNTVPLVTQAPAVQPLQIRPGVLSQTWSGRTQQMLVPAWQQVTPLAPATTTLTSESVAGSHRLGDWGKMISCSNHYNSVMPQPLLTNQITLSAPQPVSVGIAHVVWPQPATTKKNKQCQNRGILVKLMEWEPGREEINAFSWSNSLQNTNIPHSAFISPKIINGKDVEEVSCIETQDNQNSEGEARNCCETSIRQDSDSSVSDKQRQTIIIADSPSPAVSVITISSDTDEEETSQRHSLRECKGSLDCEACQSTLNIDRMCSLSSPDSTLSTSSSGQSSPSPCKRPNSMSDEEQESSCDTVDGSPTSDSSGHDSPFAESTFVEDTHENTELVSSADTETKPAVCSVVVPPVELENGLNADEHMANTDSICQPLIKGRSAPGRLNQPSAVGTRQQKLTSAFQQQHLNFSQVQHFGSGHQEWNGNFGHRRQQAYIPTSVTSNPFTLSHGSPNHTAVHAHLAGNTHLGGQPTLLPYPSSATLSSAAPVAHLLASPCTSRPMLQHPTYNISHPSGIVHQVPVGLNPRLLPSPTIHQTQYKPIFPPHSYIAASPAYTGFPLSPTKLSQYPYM

[23] = Volume of distribution at steady state in mouse at 1 mg/kg, iv measured upto 24 hrs by LC-MS/MS anlaysis; type: ADME, organism-based; details: in vivo, read-out: Vdss
[24] = target: Mitogen-activated protein kinase 15 (Homo sapiens, UniProt Q8TD08); assay: Inhibition of ERK8 (unknown origin) by ADP-Glo assay
[25] = Clearance in rat at 1 mg/kg, iv measured upto 24 hrs by LC-MS/MS anlaysis; type: ADME, organism-based; details: in vivo
Cytochrome P450 1A2 [26] = target: T1, Cytochrome P450 1A2; assay: Inhibition of CYP1A2 (unknown origin) preincubated for 30 mins in presence of NADPH; type: ADME
[27] = target: Cyclin-dependent kinase 8 (Homo sapiens, UniProt P49336); assay: Inhibition of CDK8 (unknown origin) by HTRF assay
Sequence of Cyclin-dependent kinase 8 (P49336 whole entry): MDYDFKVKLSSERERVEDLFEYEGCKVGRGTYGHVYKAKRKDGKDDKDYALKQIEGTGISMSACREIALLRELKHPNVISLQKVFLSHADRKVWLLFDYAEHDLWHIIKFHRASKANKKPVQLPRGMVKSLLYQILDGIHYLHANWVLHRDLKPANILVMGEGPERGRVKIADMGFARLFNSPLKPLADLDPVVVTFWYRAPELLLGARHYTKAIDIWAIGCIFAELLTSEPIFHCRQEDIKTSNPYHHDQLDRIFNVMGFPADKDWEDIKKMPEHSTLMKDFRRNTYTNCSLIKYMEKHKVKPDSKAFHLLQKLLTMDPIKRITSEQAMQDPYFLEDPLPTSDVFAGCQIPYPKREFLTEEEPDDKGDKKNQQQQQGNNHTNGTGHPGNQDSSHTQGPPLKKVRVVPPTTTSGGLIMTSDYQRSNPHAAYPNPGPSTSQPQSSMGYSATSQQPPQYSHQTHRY

[28] = Inhibition of CDK1/cyclinA2 (unknown origin) by ADP-Glo chemiluminescence assay; set-up: species or system Homo sapiens
[29] = target: T3, Cyclin-dependent kinase 19 (Homo sapiens, UniProt Q9BWU1); assay: Inhibition of CDK19 (unknown origin) by ADP-Glo assay
T3 sequence (Q9BWU1 whole entry): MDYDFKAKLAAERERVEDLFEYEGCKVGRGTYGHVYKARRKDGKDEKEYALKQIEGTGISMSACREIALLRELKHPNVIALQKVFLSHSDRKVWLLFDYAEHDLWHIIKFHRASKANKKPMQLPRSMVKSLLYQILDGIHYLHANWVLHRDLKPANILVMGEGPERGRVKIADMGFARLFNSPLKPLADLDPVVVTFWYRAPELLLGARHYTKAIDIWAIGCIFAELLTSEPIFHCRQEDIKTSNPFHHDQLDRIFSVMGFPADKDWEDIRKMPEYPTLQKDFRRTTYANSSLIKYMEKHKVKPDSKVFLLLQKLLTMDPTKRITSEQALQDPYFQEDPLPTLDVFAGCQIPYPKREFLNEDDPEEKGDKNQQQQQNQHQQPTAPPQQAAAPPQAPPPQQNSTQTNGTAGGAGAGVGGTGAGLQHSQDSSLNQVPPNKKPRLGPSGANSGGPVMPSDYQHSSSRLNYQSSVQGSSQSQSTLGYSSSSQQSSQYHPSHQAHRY

[30] = Volume of distribution at steady state in rat at 1 mg/kg, iv measured upto 24 hrs by LC-MS/MS anlaysis; type: ADME, organism-based; details: in vivo, read-out: Vdss
[31] = target: T3, Cyclin-dependent kinase 19; assay: Inhibition of CDK19 (unknown origin) by HTRF assay
[32] = Half-life in dog at 1 mg/kg, iv measured upto 24 hrs by LC-MS/MS anlaysis; type: ADME, organism-based, Canis lupus familiaris; details: in vivo
CDK2/Cyclin A2 = CDK2/Cyclin A2 (Homo sapiens, UniProt P24941); assay: Inhibition of CDK2/cyclinA2 (unknown origin) by ADP-Glo chemiluminescence assay; type: protein-complex assay
[33] = target: Cyclin-Y/Cyclin-dependent kinase 16 (Homo sapiens) (UniProt Q00536+Q8ND76); assay: Inhibition of CDK16/cyclinY (unknown origin) at 1 uM by luminescence based assay relative to control; type: protein-complex assay

Structure (SMILES)	IC50 [1] [nM]	clearance [2] [mL/min/kg]	IC50 [3] [nM]	clearance [4] [mL/min/kg]	IC50 (CDK8/Cyclin C) [nM]	IC50 [5] [nM]	IC50 (Cytochrome P450 1A2 [6]) [nM]	IC50 [7] [nM]	IC50 [9] [nM]	half-life [10] [h]	IC50 [11] [nM]	IC50 [12] [nM]	IC50 [13] [nM]	IC50 (CDK7/Cyclin H/MNAT1) [nM]	IC50 [14] [nM]	IC50 [15] [nM]	IC50 [16] [nM]	IC50 (MV4-11) [nM]	IC50 [17] [nM]	IC50 [18] [nM]	further results
Cc1c(Br)c(Br)c2c3c1nc(N1CCNCC1)n3CCC2 [SEL-120 FREE BASE]	21	30	332	81	17.5	2.7	160	46	279	3.01	0.968	1.34	> 10000	51	700	5.3	1.66	43.8	298	1390	bioavailability [8]: 20%; Vd [19]: 6.23 L/kg; IC50 [20]: 717 nM; half-life [21]: 1.77 h; IC50 [22]: 132 nM; Vd [23]: 19.2 L/kg; IC50 [24]: 1340 nM; clearance [25]: 246 mL/min/kg; IC50 (Cytochrome P450 1A2 [26]): 40 nM; IC50 [27]: 14.5 nM; IC50 [28]: 20.5 nM; IC50 [29]: 25.1 nM; Vd [30]: 32.3 L/kg; IC50 [31]: 19.1 nM; half-life [32]: 2.7 h; IC50 (CDK2/Cyclin A2): 4.7 nM
FC(F)c1c(Br)c(Br)cc2c1nc(N1CCNCC1)n2C1CCOCC1	14.3	12	158	14	7.5	2.9	8580	13.6	64.9	5.04	31.4	194	6680	197	5800	8.2	87.4	5.7	124	132	inhibition [33]: 64.1%; Vd [19]: 4.31 L/kg; IC50 [20]: 353 nM; half-life [21]: 2.53 h; IC50 [22]: 503 nM; Vd [23]: 5.96 L/kg; IC50 [24]: 59.7 nM; clearance [25]: 70 mL/min/kg; IC50 (Cytochrome P450 1A2 [26]): 4580 nM; IC50 [27]: 2.08 nM; IC50 [28]: 236 nM; IC50 [29]: 25.1 nM; Vd [30]: 13.3 L/kg; IC50 [31]: 2.49 nM; half-life [32]: 4.75 h; IC50 (CDK2/Cyclin A2): 42.6 nM
